Here are results for one compound from article PMC9228592, “Dichloroacetyl Amides of 3,5-Bis(benzylidene)-4-piperidones Displaying Greater Toxicity to Neoplasms than to Non-Malignant Cells” (Medicines, 2022).

Format in all cases: cell-based, human
In data set [1] the test system is Ca9-22 squamous cell carcinoma cells. Nature of the data set: Cytotoxicity (MTT, 48 h) against Ca9-22 cells. To be noted: Homo sapiens, Ca9-22; 48 h, MTT, mean ± S.D. of triplicate. The text has this: (§1) The target cells used in our study were human oral squamous cell carcinoma cell lines Ca9-22 (purchased from RIKEN Cell Bank, Tukuba, RCB-1976), HSC-2 (RCB1945), HSC-3 (RCB1975), HSC-4 (RCB1902), and three human normal oral cells, gingival fibroblast (HGF), periodontal ligament fibroblast (HPLF), and pulp cells (HPC) [established from the first premolar extracted tooth in the lower jaw (because of dysfunctional position or orthodontic treatment) and periodontal tissues of a child, according to the guideline of the Institutional Board of Meikai University Ethics Committee (No. A0808)], after obtaining informed consent from the patients. These cells were incubated for 48 h with the indicated concentrations of test samples or reference compounds sodium dichloroacetate (purchased from Sigma-Aldrich Chemical Company, Saint Louis, MO, USA), 5-fluorouracil (5-FU) from Kyowa (Tokyo, Japan), and doxorubicin (DXR) (St. Louis, MO, USA) and vehicle (DMSO) (0.008, 0.016, 0.031, 0.063, 0.125, 0.25, 0.5, and 1%) in Dulbecco’s Modified Eagle Medium (DMEM) media, which was supplemented with 10% heat-inactivated fetal bovine serum. Cell viability was determined by the MTT method. Cytotoxicity caused by the vehicle (DMSO) was subtracted.
(§2) SI was calculated by dividing the average CC50 value (concentration of the compound to kill 50% of the cells) of the compound towards HGF, HPLF, and HPC cells by the CC50 value of the compound against a specific neoplastic cell line.

The subject of data set [2] is HSC-2 squamous cell carcinoma cells. The experiment in a line: Cytotoxicity (MTT, 48 h) against HSC-2 cells.
Excerpt: as §1, §2

In data set [3] the test system is HSC-3 squamous cell carcinoma cells. Nature of the data set: Cytotoxicity (MTT, 48 h) against HSC-3 cells.
Excerpt: as §1, §2

Data set [4] deals with HSC-4 squamous cell carcinoma cells. The experiment in a line: Cytotoxicity (MTT, 48 h) against HSC-4 cells.
Excerpt: as §1, §2

A short description of data set [5]: Cytotoxicity (MTT, 48 h) against HGF non-malignant cells. To be noted: human, normal gingival fibroblasts (HGF), mean ± S.D. of triplicate.
Excerpt: as §1

Data set [6] in a line: Cytotoxicity (MTT, 48 h) against HPLF non-malignant cells. To be noted: human, normal periodontal ligament fibroblasts (HPLF), mean ± S.D. of triplicate.
Excerpt: as §1

The nature of data set [7]: Cytotoxicity (MTT, 48 h) against HPC non-malignant cells. The following applies: female, human, normal pulp cells (HPC), mean ± S.D. of triplicate.
Excerpt: as §1

Data set [8] deals with Ca9-22, HSC-2, HSC-3, and HSC-4 cells. Nature of the data set: Average cytotoxicity, selectivity and PSE over the four carcinoma lines.
Excerpt: as §1, §2
PSE reflects both the potencies and differences in cytotoxicity to neoplasms and non-malignant cells. This value was the product of the reciprocal of the average CC50 value of the compounds towards Ca9-22, HSC-2, HSC-3, and HSC-4 cells and the average SI value × 100.

Data set [9] in a line: Average cytotoxicity over the three non-malignant cells. To be noted: female, human, normal oral cells HGF, HPLF and HPC (average over the three).
Excerpt: as §1

Data set [10] has as its system Ca9-22 cells. Nature of the data set: Cell cycle assay in Ca9-22 cells. To be noted: 20 h. As for the experimental part:
The evaluation of varying quantities of 1d,e,k on the cell cycle in Ca9-22 cells was undertaken by a literature method. In brief, Ca9-22 cells were treated for 20 h without (control) or with the indicated concentrations of the test samples. To neglect the cytotoxicity effect of DMSO, all samples contained 0.1% DMSO. Cells (approximately 10^6 cells) were harvested, fixed for 1 h on ice with 1% paraformaldehyde, washed twice by phosphate-buffered saline, treated for 30 min at 37 °C with 0.2 mg/mL RNase A (ribonuclease A), stained for 15 min at room temperature with 0.01% propidium iodide in the presence of 0.01% NP-40 (nonyl phenoxypolyethoxyethanol) to prevent cell aggregation, filtered through Falcon® cell strainers (pore size: 40 µm) (Corning, NY, USA), subjected to cell sorting (SH800 Series; SONY Imaging Products and Solutions Inc., Kanagawa, Japan), and then analyzed with Cell Sorter Software version 2.1.2. (SONY Imaging Products and Solutions Inc., Kanagawa, Japan).

The test system of data set [11] is Ca9-22 cells. The experiment in a line: Mitotic accumulation in Ca9-22 cells. To be noted: two highest concentrations of 3, 10, 30 times the CC50 value, 20 h. As for the experimental part:
Another way in which cytotoxicity could occur is by initiating mitosis. In order to examine this possibility, different concentrations of the potent cytotoxin 1k that were 3, 10, and 30 times the CC50 value were incubated with Ca9-22 cells for 20 h. […] In order to explore the possibility that the dichloroacetyl group contributed to this effect, concentrations of 2a that were 3, 10, and 30 times the CC50 concentration were incubated with Ca9-22 cells for 20 h. […] The question arose as to the way in which this observation could be useful in anticancer drug design. Cells which are stimulated to divide are likely more sensitive to a subsequent attack of a cytotoxin when cells are in a resting stage, for example.

The test system of another data set is PARP. Nature of the data set: PARP cleavage in Ca9-22 cells (Western blot). The following applies: 0.2 and 0.6 µM, 20 h. The method, then: (§3) The effect of 20 h incubation of different concentrations of 1k and 2a with Ca9-22 cells on the cleavage of PARP and procaspase 3 cleavage was undertaken using a reported procedure. In brief, the control and treated Ca9-22 cells at near confluent phase were collected and lysed, and protein samples of cell lysates (15 µg) were applied to SDS-polyacrylamide gel electrophoresis. After electrophoresis, the separated proteins were transferred onto a PVDF (polyvinylidene fluoride) filter. The blots were treated in skim milk and then probed for 120 min with a primary antibody cocktail (1:250) from an Apoptosis Western Blot Cocktail kit (purchased from Abcam, Cambridge, UK). The blots were washed and probed with horseradish peroxidase conjugated secondary antibody cocktail (1:100). Immunoreactivities were determined using Amer-sham ECL Select. Images were acquired using ChemiDoc MP System and Image Lab 4.1 software (Bio-Rad Laboratories, Hercules, CA, USA).
Background: In western blotting, separated proteins are transferred to a membrane and probed.

The subject of another data set is procaspase 3. The experiment in a line: Procaspase 3 cleavage in Ca9-22 cells (Western blot). To be noted: 0.2 and 0.6 µM, 20 h. The method, then:
as §3

The structures appear in SMILES notation.

With `O=C1/C(=C/c2ccc([N+](=O)[O-])cc2)CN(C(=O)C(Cl)Cl)C/C1=C\c1ccc([N+](=O)[O-])cc1` [Compound 1k], the 50% cytotoxic concentration (CC50) in data set [1] worked out at 20 ± 10 nM; in data set [2] (Homo sapiens, HSC-2, 48 h, MTT, mean ± S.D. of triplicate), 80 ± 10 nM; in [3] (Homo sapiens, HSC-3, 48 h, MTT, mean ± S.D. of triplicate) it was 100 ± 30 nM; in data set [4] (Homo sapiens, HSC-4, 48 h, MTT, mean ± S.D. of triplicate), 180 ± 40 nM; in data set [8] (Homo sapiens, average over Ca9-22, HSC-2, HSC-3, HSC-4) it was 100 nM. Also, the “HSC-2 CC50” value in data set [2] (48 h, MTT, mean ± S.D. of triplicate) is “double-digit nanomolar”. For the same compound, the “SI (HSC-2)” value in [2] (average CC50 towards HGF, HPLF, HPC divided by CC50 against HSC-2) came to 18.0. In [3] (average CC50 towards HGF, HPLF, HPC divided by CC50 against HSC-3), the “SI (HSC-3)” value is listed as 14.4. The “SI (HSC-4)” value in data set [4] (average CC50 towards HGF, HPLF, HPC divided by CC50 against HSC-4) is 8.00. Further, the CC50 at 48 h in [5] is 3010 ± 330 nM; in data set [6], 760 ± 130 nM; in data set [7], 560 ± 80 nM; in data set [9], 1440 nM. Besides, the “average potency figure relative to 5-FU (times lower)” value in data set [8] (average CC50 compared with 5-FU) is given as 310 times. For the same compound, the “Average SI” value in data set [8] (average of SI over Ca9-22, HSC-2, HSC-3, HSC-4) is listed as 28.1. Further, in the data set with Ca9-22 cells [10] (0.8 µM), the subG1 population result is “slight increase”. Further, in the data set with Ca9-22 cells [10] (0.8 µM, p < 0.05), the G2M cell population entry is “most prominent increase”. In addition, the “effect on the cell cycle” value in the data set with Ca9-22 cells [10] (0.1, 0.2, and 0.4 µM) is “little effects”. Also, the “percentage of the cells undergoing mitosis” value in the data set with Ca9-22 cells [11] was “increased significantly”. Also, the PARP cleavage entry in the data set on PARP is “PARP was cleaved”. Further, the “cleavage of procaspase to caspase 3” value in the data set on procaspase 3 is listed as “cleavage of procaspase to caspase 3 was observed”.

In general, CC50 refers to the concentration at which the toxic effect on the cells reaches its halfway point. A low value points to harm at low concentration.
